Reference: ChEMBL document CHEMBL1201862, “PubChem BioAssay data set” (2004)
“And” between values parts separate entries of the source, which are not always exact repeats. Identical values can stand only once. The source made the active and inactive calls.

Key:
[1] = target: T1, Alkaline phosphatase, tissue-nonspecific isozyme (Homo sapiens, UniProt P05186); assay: TNAP enzyme activators, dose response, selectivity assay for mouse IAP activator project, biochemical, TNAP isozyme, mouse IAP uHTS hits (AID 488880); format: functional
T1 sequence (P05186 whole entry): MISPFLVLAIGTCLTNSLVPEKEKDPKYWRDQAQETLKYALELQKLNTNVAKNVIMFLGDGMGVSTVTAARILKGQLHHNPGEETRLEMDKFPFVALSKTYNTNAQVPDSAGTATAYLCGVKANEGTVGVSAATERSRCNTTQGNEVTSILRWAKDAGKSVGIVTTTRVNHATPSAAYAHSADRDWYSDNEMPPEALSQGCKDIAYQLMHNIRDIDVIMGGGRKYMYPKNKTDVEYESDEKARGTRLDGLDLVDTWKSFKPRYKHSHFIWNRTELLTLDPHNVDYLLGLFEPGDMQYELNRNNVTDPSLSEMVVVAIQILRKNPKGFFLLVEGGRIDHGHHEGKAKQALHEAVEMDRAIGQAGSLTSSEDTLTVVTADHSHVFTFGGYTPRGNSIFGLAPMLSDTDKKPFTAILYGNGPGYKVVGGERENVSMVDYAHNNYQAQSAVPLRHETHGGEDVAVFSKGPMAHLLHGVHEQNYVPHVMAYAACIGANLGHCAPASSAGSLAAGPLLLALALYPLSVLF

[2] = target: T2, Heat shock factor protein 1 (Mus musculus, UniProt P38532); assay: inhibition of MG132-induced HSE-luciferase signal, confirmation, cell-based, NIH3T3, luminescence, dose retest (AID 2382); format: functional;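 note: NIH3T3 fibroblasts with HSF1-driven luciferase reporter stressed by proteasome inhibitor MG132; luminescence from HSF1-driven luciferase expression after 8 hours of MG132 stress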
T2 sequence (P38532 whole entry): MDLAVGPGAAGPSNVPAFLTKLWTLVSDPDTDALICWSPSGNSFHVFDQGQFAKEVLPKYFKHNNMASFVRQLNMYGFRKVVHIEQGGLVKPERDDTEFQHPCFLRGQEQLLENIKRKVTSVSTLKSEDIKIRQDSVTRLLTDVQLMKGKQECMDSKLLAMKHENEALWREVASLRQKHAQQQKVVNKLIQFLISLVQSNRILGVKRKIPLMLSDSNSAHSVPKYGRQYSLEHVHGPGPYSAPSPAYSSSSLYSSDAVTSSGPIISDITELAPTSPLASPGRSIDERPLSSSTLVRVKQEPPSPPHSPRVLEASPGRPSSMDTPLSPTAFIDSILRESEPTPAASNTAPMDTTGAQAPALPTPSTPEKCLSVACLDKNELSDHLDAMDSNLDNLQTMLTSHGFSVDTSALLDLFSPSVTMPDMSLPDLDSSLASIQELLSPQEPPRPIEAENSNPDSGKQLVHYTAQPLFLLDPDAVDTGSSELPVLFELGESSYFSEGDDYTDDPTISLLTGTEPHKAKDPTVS

[3] = target: T3, Intestinal-type alkaline phosphatase (Mus musculus, UniProt P24822); assay: mouse intestinal alkaline phosphatase activators, dose response, biochemical, luminescence, uHTS hits (AID 488783); format: functional
[4] = target: Intestinal-type alkaline phosphatase (Homo sapiens, UniProt P09923); assay: activation of human intestinal alkaline phosphatase – biochemical, dose response (AID 488873); format: functional
HEK293 [5] = assay: cells; format: functional, cell-based; details: Homo sapiens
HEK293 [6] = assay: cells; format: functional, cell-based; details: Homo sapiens; remark: listed apart in the source
HEK293 [7] = assay: cells; format: functional, cell-based; details: Homo sapiens; remark: listed apart in the source
HEK293 [8] = assay: cells; details: Homo sapiens
HEK293 [9] = assay: NOD2 signaling inhibitors in MDP-stimulated cells, cell-based, uHTS, luminescence (AID 2001); format: functional; details: Homo sapiens
HEK293 [10] = assay: NOD1 signaling inhibitors, primary screen, cell-based, luminescence, uHTS (AID 1578); format: functional; details: Homo sapiens
[11] = target: Nucleotide-binding oligomerization domain-containing protein 2 (Homo sapiens, UniProt Q9HC29); assay: NOD2 signaling inhibitors, cell-based, luminescence, uHTS, HEK293 (AID 1566); format: functional
[12] = cytotoxicity in HEK-293T cells, dose response, cytotoxicity control for TCR NF-kB inhibitor project, luminescence, T-cell screen hits (AID 489026); format: functional, cell-based;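 note: cells exposed to compound about 14 hours before the viability readout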
Tumor necrosis factor = Tumor necrosis factor (Homo sapiens, UniProt P01375); assay: TNFa-triggered NF-kB activation inhibitors, SAR follow-up, cell-based, revised (AID 2337); format: functional
[13] = target: Nucleotide-binding oligomerization domain-containing protein 1 (Homo sapiens, UniProt Q9Y239); assay: NOD1 signaling inhibitors, SAR follow-up, revised (AID 2333); format: functional
[14] = target: Tyrosine-protein phosphatase non-receptor type 7 (Homo sapiens, UniProt P35236); format: functional
[15] = target: T4, Tyrosine-protein phosphatase non-receptor type 22 (Homo sapiens, UniProt Q9Y2R2); format: functional
T4 sequence (Q9Y2R2 whole entry): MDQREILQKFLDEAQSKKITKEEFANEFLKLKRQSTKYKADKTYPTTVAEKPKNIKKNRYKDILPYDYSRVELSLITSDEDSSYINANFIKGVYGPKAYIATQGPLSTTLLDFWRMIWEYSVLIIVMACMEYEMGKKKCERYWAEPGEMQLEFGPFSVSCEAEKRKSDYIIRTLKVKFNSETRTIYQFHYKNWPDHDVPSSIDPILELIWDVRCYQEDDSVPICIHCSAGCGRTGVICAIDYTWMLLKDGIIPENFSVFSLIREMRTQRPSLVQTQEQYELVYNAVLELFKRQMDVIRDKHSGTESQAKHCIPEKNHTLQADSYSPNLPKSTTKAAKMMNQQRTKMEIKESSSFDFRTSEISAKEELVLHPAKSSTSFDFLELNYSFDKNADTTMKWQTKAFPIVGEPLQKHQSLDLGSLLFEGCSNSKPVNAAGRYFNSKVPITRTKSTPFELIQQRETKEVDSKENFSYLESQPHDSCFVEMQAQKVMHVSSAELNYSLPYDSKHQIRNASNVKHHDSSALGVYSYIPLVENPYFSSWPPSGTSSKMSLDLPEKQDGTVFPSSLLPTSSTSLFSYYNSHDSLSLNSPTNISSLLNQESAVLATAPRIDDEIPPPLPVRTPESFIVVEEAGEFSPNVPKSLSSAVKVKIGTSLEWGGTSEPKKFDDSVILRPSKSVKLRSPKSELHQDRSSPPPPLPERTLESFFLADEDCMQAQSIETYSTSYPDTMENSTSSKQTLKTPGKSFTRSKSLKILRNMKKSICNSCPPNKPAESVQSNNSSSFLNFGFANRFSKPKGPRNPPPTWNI

[16] = target: T4, Tyrosine-protein phosphatase non-receptor type 22; format: functional; remark: listed apart in the source
[17] = target: Phosphoethanolamine/phosphocholine phosphatase (Homo sapiens, UniProt Q8TCT1); assay: SAR assay for compounds that inhibit PHOSPHO1. [Related pubchem assays (depositor defined):AID1545, AID1565, AID1574]
Phosphomannomutase 2 = Phosphomannomutase 2 (Homo sapiens, UniProt O15305); assay: Counter screen SAR assay for PMM2 inhibitors via a fluorescence intensity assay. [Related pubchem assays (depositor defined):AID1545, AID1574]
[18] = target: T5, Mannose-6-phosphate isomerase (Homo sapiens, UniProt P34949); assay: PMI enzyme inhibitors, confirmation, biochemical, fluorescence intensity (AID 1535)
T5 sequence (P34949 whole entry): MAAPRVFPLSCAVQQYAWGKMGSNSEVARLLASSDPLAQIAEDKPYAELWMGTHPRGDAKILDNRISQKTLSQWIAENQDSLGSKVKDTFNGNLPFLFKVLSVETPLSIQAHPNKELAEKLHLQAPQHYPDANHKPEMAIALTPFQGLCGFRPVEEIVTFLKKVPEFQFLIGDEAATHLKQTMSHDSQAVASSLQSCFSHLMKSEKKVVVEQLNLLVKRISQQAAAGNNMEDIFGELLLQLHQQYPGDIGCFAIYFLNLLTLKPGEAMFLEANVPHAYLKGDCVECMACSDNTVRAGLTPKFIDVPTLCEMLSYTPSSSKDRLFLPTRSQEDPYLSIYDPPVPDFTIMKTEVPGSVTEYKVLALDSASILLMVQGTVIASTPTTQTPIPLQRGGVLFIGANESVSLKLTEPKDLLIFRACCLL

Cytochrome P450 2D6 = Cytochrome P450 2D6 (Homo sapiens, UniProt P10635);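 note: CYP2D6 member of a cytochrome P450 panel assay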
Cannabinoid receptor 1 [19] = target: T6, Cannabinoid receptor 1 (Homo sapiens, UniProt P21554); assay: SAR analysis of agonists of the Cannabinoid Receptor 1 using an Image-Based Assay - Set 4. [Related pubchem assays (depositor defined):AID2013, AID2026]; format: functional
Cannabinoid receptor 2 [20] = target: T7, Cannabinoid receptor 2 (Homo sapiens, UniProt P34972); assay: SAR analysis of antagonists of the Cannabinoid Receptor 2 using an Image-Based Assay - Set 3. [Related pubchem assays (depositor defined):AID2013, AID2026]; format: functional
[21] = target: T8, G-protein coupled receptor 35 (Homo sapiens, UniProt Q9HC97); assay: SAR analysis of Antagonists of the GPR35 Receptor using an Image-Based Assay - Set 6. [Related pubchem assays (depositor defined):AID2013, AID2026]; format: functional
[22] = target: T8, G-protein coupled receptor 35; assay: SAR analysis of Agonists of the GPR35 Receptor using an Image-Based Assay - Set 4. [Related pubchem assays (depositor defined):AID2013, AID2026]; format: functional
Cannabinoid receptor 2 [23] = target: T7, Cannabinoid receptor 2; assay: SAR analysis of agonists of the Cannabinoid Receptor 2 using an Image-Based Assay - Set 3. [Related pubchem assays (depositor defined):AID2013, AID2026]; format: functional
Streptokinase A = target: T9, Streptokinase A (Streptococcus pyogenes serotype M1, UniProt P10520); assay: S. pyogenes streptokinase expression inhibitors, potency, dose response, plasminogen activation absorbance, OD405 (AID 1914); format: functional, Streptococcus pyogenes M1 GAS;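 note: secreted streptokinase activity via plasminogen activation per viability signal from cell pellet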
T9 sequence (P10520 whole entry): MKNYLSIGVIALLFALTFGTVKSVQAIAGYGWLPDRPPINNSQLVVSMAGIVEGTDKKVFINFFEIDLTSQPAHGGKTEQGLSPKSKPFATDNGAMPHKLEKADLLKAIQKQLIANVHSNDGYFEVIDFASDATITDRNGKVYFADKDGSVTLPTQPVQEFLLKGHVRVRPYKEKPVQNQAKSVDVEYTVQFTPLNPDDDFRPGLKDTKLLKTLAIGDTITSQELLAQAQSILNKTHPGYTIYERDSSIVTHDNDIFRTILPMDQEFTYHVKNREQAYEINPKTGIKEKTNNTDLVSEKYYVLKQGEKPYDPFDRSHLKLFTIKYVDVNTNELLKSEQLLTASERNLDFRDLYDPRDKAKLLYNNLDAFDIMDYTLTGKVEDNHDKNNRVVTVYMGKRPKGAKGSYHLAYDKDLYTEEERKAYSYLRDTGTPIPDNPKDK

Cannabinoid receptor 1 [24] = target: T6, Cannabinoid receptor 1; assay: SAR analysis of antagonists of the Cannabinoid Receptor 1 using an Image-Based Assay - Set 4. [Related pubchem assays (depositor defined):AID2013, AID2026]; format: functional
[25] = target: G-protein coupled receptor 55 (Homo sapiens, UniProt Q9Y2T6); assay: SAR Analysis of Selective Antagonists of GPR55 using an Image-Based Assay - Set 4. [Related pubchem assays (depositor defined):AID2013, AID2026]; format: functional;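 note: antagonism of response to 5 µM lysophosphatidylinositol agonist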
[26] = target: T3, Intestinal-type alkaline phosphatase; assay: PubChem AID 488785; format: functional
[27] = target: T1, Alkaline phosphatase, tissue-nonspecific isozyme; assay: TNAP enzyme inhibition by screening hits, dose response, selectivity assay for mouse IAP inhibitor project, biochemical, human TNAP, uHTS hits (AID 488906); format: functional
CAAX prenyl protease 2 = CAAX prenyl protease 2 (Homo sapiens, UniProt Q9Y256); assay: human Rce1 protease inhibitors, dose response, biochemical, yeast membranes, quenched-peptide fluorescence, cherry-pick (AID 588849)
CAAX prenyl protease 1 = CAAX prenyl protease 1 (Saccharomyces cerevisiae S288c, UniProt P47154); assay: Ste24 protease inhibitors, dose response, biochemical, S. cerevisiae, plate reader, cherry-pick (AID 488815)

T6 sequence (P21554 whole entry): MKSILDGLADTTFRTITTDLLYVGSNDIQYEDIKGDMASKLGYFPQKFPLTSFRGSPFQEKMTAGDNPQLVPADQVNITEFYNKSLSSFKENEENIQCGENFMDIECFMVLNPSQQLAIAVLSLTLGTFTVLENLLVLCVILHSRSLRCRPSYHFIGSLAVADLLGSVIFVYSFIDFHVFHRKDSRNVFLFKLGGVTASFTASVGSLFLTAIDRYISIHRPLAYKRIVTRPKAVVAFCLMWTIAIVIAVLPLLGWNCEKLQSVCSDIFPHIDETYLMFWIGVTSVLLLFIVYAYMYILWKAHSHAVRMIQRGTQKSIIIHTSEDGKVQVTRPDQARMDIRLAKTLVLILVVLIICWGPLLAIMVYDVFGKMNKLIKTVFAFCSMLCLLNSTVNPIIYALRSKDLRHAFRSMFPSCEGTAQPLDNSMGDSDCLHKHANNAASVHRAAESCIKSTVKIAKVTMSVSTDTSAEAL
T8 sequence (Q9HC97 whole entry): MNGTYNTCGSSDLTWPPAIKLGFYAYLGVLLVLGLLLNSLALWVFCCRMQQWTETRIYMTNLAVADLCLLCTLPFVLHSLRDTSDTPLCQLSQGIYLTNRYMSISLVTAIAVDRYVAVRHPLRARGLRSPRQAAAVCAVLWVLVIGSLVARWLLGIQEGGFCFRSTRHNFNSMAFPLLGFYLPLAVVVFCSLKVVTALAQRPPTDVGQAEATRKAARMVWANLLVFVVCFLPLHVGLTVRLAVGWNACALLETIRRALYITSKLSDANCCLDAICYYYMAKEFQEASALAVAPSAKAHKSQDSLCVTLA
T7 sequence (P34972 whole entry): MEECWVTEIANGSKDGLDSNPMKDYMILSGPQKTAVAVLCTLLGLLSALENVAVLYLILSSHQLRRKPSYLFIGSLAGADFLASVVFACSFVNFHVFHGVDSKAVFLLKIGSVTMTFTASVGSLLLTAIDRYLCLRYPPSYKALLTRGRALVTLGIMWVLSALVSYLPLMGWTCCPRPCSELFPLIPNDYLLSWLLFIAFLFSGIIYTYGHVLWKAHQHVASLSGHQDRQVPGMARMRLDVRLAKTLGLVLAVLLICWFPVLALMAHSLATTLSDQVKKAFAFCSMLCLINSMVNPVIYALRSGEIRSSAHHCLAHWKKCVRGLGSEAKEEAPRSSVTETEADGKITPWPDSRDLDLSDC
Sequence of G-protein coupled receptor 55 (Q9Y2T6 whole entry): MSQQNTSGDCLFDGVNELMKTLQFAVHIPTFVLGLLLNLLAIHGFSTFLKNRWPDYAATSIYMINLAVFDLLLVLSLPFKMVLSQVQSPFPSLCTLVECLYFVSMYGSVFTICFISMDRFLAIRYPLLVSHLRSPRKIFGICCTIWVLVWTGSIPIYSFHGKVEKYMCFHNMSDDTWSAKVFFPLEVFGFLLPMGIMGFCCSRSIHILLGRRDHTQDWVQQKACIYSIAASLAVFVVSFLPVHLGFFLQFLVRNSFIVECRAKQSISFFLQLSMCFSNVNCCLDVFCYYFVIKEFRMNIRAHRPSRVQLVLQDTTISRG
Sequence of Intestinal-type alkaline phosphatase (Homo sapiens, UniProt P09923) (P09923 whole entry): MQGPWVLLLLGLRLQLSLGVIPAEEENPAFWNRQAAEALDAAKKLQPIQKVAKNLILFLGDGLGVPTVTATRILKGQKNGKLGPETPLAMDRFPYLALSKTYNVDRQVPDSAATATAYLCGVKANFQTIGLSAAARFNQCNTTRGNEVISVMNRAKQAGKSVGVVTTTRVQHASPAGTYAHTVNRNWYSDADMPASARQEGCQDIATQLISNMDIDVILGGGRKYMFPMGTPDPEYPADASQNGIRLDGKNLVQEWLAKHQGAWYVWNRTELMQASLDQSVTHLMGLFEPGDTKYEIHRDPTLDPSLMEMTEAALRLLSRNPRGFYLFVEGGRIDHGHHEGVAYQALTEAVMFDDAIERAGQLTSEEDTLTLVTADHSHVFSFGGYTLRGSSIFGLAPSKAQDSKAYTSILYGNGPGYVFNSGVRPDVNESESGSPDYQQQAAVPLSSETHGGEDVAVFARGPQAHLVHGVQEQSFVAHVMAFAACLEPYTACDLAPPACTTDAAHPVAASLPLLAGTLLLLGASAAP
T3 sequence (P24822 whole entry): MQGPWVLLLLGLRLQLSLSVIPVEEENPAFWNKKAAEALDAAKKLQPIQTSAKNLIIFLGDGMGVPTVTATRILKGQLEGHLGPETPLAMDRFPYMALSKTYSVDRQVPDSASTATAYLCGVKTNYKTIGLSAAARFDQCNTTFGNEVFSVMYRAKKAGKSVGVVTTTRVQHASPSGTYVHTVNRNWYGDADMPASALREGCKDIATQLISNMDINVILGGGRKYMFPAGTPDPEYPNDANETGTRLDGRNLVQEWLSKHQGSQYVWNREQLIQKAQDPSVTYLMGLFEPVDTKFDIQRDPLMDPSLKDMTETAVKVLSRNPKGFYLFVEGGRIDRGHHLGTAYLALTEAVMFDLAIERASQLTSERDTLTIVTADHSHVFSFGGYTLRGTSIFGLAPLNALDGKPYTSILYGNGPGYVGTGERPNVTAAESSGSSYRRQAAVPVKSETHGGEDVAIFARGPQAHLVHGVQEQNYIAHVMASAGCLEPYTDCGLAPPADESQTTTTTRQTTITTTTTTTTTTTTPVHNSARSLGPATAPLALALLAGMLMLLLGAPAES
Sequence of Nucleotide-binding oligomerization domain-containing protein 2 (Q9HC29 whole entry, the tested form may be a part): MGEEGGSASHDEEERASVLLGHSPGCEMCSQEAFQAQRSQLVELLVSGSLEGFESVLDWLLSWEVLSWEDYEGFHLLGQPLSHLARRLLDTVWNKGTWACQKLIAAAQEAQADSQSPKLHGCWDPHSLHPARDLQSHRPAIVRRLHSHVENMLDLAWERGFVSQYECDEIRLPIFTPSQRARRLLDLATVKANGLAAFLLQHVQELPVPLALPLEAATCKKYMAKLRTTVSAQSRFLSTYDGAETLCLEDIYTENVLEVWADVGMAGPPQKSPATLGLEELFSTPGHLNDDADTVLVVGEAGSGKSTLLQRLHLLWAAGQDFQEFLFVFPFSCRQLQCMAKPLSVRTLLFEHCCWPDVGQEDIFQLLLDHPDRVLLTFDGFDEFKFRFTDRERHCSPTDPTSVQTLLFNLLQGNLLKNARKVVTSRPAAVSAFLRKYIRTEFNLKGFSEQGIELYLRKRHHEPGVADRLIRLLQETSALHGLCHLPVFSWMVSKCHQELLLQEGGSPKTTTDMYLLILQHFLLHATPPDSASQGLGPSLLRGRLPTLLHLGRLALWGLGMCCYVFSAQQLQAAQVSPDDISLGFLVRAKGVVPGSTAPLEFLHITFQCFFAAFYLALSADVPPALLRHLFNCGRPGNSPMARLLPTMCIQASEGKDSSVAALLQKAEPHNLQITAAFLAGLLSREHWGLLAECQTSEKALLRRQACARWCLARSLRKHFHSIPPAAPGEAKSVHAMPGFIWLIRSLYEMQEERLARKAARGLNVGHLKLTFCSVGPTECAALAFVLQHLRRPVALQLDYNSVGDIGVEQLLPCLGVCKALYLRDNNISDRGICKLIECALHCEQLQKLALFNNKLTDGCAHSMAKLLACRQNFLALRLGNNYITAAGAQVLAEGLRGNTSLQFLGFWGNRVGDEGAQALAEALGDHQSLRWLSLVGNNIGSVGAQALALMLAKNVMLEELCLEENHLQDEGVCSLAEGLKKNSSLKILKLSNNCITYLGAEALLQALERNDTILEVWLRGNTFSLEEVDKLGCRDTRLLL
Sequence of Phosphomannomutase 2 (O15305 whole entry): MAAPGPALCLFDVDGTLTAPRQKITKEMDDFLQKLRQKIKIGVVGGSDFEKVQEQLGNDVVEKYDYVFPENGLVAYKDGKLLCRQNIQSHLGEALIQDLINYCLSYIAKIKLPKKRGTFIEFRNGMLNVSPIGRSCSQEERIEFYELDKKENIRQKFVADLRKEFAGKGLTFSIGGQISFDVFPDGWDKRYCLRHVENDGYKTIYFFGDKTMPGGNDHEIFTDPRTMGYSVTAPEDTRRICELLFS
Sequence of Cytochrome P450 2D6 (P10635 whole entry): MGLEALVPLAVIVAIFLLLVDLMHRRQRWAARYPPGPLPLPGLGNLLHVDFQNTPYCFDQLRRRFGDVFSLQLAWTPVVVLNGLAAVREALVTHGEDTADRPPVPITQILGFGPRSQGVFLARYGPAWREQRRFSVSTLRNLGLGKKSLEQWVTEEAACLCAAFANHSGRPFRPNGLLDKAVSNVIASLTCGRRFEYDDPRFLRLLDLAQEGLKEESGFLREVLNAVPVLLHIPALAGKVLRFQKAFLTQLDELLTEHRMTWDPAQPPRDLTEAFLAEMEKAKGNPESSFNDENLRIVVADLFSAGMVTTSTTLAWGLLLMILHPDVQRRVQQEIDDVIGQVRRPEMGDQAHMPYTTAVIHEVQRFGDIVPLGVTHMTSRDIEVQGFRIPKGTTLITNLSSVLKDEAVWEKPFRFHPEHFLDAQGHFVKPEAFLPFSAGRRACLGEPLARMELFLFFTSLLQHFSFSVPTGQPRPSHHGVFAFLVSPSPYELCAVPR
Sequence of Tumor necrosis factor (P01375 whole entry, the tested form may be a part): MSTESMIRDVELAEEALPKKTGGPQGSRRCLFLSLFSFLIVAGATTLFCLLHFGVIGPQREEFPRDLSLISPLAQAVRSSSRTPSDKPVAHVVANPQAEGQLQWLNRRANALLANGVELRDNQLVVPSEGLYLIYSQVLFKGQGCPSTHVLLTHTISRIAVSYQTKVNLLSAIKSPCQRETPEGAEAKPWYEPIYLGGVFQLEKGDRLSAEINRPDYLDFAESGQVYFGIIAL
Sequence of CAAX prenyl protease 2 (Q9Y256 whole entry): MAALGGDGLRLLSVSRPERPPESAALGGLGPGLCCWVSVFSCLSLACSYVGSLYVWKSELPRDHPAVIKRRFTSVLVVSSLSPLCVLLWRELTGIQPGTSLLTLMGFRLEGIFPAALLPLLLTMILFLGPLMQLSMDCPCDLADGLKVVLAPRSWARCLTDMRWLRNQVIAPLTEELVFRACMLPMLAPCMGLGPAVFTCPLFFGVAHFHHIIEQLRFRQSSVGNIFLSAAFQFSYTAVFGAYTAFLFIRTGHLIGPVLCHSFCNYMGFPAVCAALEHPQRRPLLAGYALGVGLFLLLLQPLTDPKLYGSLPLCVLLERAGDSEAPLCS

## COc1cc(OC)c(NC(=O)CN(C)S(=O)(=O)c2ccc3nc(O)oc3c2)cc1Cl
[1]
  EC50: 70.7 µM (active)
[2]
  EC50: > 195 µM (not active)
[3]
  EC50: 51.5 µM (active)
[4]
  EC50: 68.4 µM (active)

## Cc1cc(-c2ccc(C)c(S(=O)(=O)N3CCN(c4ccc([N+](=O)[O-])cc4)CC3)c2)on1
HEK293 [5]
  IC50: > 20 µM (inactive)
HEK293 [6]
  IC50: 2.36 µM (active)
HEK293 [7]
  IC50: > 20 µM (inactive)
HEK293 [8]
  IC50: > 20 µM (inactive)
HEK293 [9]
  IC50: 7.6 µM (inactive)
HEK293 [10]
  EC50: 2.09 µM (active)
[11]
  EC50: > 20 µM (inactive)
[12]
  IC50: > 80 µM (inactive)
Tumor necrosis factor
  IC50: 2.11 µM (active)
[13]
  IC50: 2.42 µM (active)

## C=CCN(CC=C)C(=S)NC(=O)/C=C/c1ccc(C)cc1
[14]
  IC50: > 79.4 µM (inactive)
[15]
  IC50: > 79.4 µM (inactive)
[16]
  IC50: > 79.4 µM (inactive)

## O=c1c2ccc(F)cc2sn1-c1ccc(Cl)cc1Cl
[17]
  IC50: 0.534 µM (active)
Phosphomannomutase 2
  IC50: > 100 µM (inactive)
[18]
  IC50: 14.4 µM (active)

## COc1ccc(-c2n[nH]c(C)c2-c2ccc(Cl)cc2)c(O)c1
Cytochrome P450 2D6
  AC50: 28.2 µM (inconclusive)
Cannabinoid receptor 1 [19]
  EC50: > 32 µM (inactive)
Cannabinoid receptor 2 [20]
  IC50: 5.22 µM (active) and 4.83 µM (active)
[21]
  IC50: > 32 µM (inactive)
[22]
  EC50: > 32 µM (inactive)
Cannabinoid receptor 2 [23]
  EC50: 4.81 µM (active) and 5.4 µM (active)
Streptokinase A
  EC50: 9.86 µM (active)
Cannabinoid receptor 1 [24]
  IC50: 548 nM (active) and 607 nM (active)
[25]
  IC50: 10.9 µM (inactive) and 13.4 µM (inactive)

## COc1ccc(OC)c(NC(=O)CCNS(=O)(=O)c2ccc3[nH]c(=O)oc3c2)c1
[26]
  IC50: 2.49 µM (active)
[27]
  IC50: > 100 µM (inactive)
[4]
  EC50: > 100 µM (inactive)

## O=C(NCC1CC1)c1cc(-c2ccccc2)nn1CC1CC(c2cccc([N+](=O)[O-])c2)=NO1 (centres undefined)
CAAX prenyl protease 2
  AC50: 11.7 µM (active)
CAAX prenyl protease 1
  AC50: 6.73 µM (active)
